Patent US20250230155A1 (Vanderbilt University, priority 2021, published 2025)

Biological target: T1, human mAChR M4 (Homo sapiens, UniProt P08173)
T1 construct: expressed in transfected cells
T1 sequence (P08173 1-479): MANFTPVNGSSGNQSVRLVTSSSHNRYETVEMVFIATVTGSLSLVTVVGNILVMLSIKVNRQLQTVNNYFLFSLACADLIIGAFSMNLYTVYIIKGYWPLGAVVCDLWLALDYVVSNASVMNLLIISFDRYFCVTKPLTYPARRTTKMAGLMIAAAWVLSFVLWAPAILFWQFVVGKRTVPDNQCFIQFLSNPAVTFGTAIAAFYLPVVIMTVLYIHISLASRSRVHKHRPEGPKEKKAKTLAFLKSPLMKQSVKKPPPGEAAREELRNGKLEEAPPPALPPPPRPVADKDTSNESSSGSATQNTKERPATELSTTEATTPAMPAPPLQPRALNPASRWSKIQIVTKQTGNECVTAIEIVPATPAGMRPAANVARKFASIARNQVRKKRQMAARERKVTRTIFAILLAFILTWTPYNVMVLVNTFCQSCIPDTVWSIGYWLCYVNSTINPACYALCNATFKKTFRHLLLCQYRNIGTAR
Test: mAChR M4 cell-based functional assay (calcium mobilization, CHO-K1 hM4-Gqi5 cells)
Conditions: for Emax at 30 µM: CHO-K1, % ACh maximum at 30 μM, human M4; for EC50: positive allosteric modulator activity, increase in the EC20 acetylcholine response, CHO-K1 hM4-Gqi5 cells, read-out: Human M4 EC50
Method in brief: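 Fluorescent calcium read-out (Fluo-4 AM, FDSS, 1 Hz) in hM4-Gqi5 CHO-K1 cells, 11-point 1:3 compound series. Agonism scored on compound addition, PAM activity as increase of the 144 s EC20 acetylcholine response, antagonism as decrease of the 230 s EC80 response; four-parameter logistic fits give EC50 and Emax.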

Row | Compound | Emax at 30 µM [%] | EC50 [nM] | Emax (CHO-K1) [%]
1 | Cc1cc(C#N)cnc1N1CCc2ncc(Nc3ccncc3F)cc2C1 [Example 599, 6-(3-((3-fluoropyridin-4-yl)amino)-7,8-dihydro-1,6-naphthyridin-6(5H)-yl)-5-methylnicotinonitrile] | 96 | 7 | –
2 | Cc1nc(Cl)c(C)c(N2CCc3ncc(-c4sc(C)nc4C)cc3C2)n1 [compound 198, 5-[6-(6-chloro-2,5-dimethyl-pyrimidin-4-yl)-7,8-dihydro-5H-1,6-naphthyridin-3-yl]-2,4-dimethyl-thiazole] | 92 | 137 | –
3 | Cc1c(C#N)nnc(N2CCc3ncc(Nc4cccc(Cl)c4F)cc3C2)c1C [Example 36] | 66 | 698 | –
4 | [2H]C1([2H])Cc2ncc(Nc3ccccc3F)cc2C([2H])([2H])N1c1nnc(C#N)cc1C [Example 611, 6-(3-((2-fluorophenyl)amino)-7,8-dihydro-1,6-naphthyridin-6(5H)-yl-5,5,7,7-d4)-5-methylpyridazine-3-carbonitrile] | 86 | 8 | –
5 | Cc1cc(C(=O)NCc2ccncc2)cnc1N1CCc2ncc(-c3cnn(C)c3)cc2C1 [compound 176, 5-methyl-6-[3-(1-methylpyrazol-4-yl)-7,8-dihydro-5H-1,6-naphthyridin-6-yl]-N-(4-pyridylmethyl)pyridine-3-carboxamide] | 89 | 188 | –
6 | COCc1nc(Cl)c(C)c(N2CCc3ncc(Br)cc3C2)n1 [compound 211, 3-bromo-6-(6-chloro-2-(methoxymethyl)-5-methylpyrimidin-4-yl)-5,6,7,8-tetrahydro-1,6-naphthyridine] | – | 123 | 99
7 | Cc1cc(C(=O)N2CC(Cl)C2)nnc1N1CCc2ncc(N3CCO[C@H](C)C3)cc2C1 [Example 538, (R)-(3-chloroazetidin-1-yl)(5-methyl-6-(3-(2-methylmorpholino)-7,8-dihydro-1,6-naphthyridin-6(5H)-yl)pyridazin-3-yl)methanone] | 103 | 54 | –
8 | Cc1cc(C#N)cnc1N1CCc2ncc(N3CCOC(c4cccnc4)C3)cc2C1 (stereo not shown) [Example 389, 5-methyl-6-(3-(2-(pyridin-3-yl)morpholino)-7,8-dihydro-1,6-naphthyridin-6(5H)-yl)nicotinonitrile] | 92 | 942 | –
9 | [2H]C1([2H])Cc2ncc(Nc3ccccc3F)cc2C([2H])([2H])N1c1ncc(C#N)cc1C [Example 612] | 91 | 24 | –
10 | Cc1nc(Cl)c(C)c(N2Cc3cc(C(F)(F)F)cnc3C(C)C2)n1 (stereo not shown) [compound 256, 6-(6-chloro-2,5-dimethylpyrimidin-4-yl)-8-methyl-3-(trifluoromethyl)-5,6,7,8-tetrahydro-1,6-naphthyridine] | 85 | 663 | –
11 | Cc1cc(C(=O)N2CC(C)(F)C2)nnc1N1CCc2ncc(-c3ccnn3C)cc2C1 [Example 564, (3-fluoro-3-methylazetidin-1-yl)(5-methyl-6-(3-(1-methyl-1H-pyrazol-5-yl)-7,8-dihydro-1,6-naphthyridin-6(5H)-yl)pyridazin-3-yl)methanone] | 72 | 86 | –
12 | Cc1cnc2c(c1)CN(c1nnc(C(=O)NCc3cnc4ccccc4c3)c(C)c1C)CC2 [Example 471, 4,5-dimethyl-6-(3-methyl-7,8-dihydro-1,6-naphthyridin-6(5H)-yl)-N-(quinolin-3-ylmethyl)pyridazine-3-carboxamide] | 91 | 251 | –
13 | [2H]C([2H])(NC(=O)c1cc(C)c(N2CCc3ncc(C(F)(F)F)cc3C2)nn1)c1cscn1 [Example 507, 5-methyl-N-(thiazol-4-ylmethyl-d2)-6-(3-(trifluoromethyl)-7,8-dihydro-1,6-naphthyridin-6(5H)-yl)pyridazine-3-carboxamide] | 81 | 43 | –
14 | Cc1c(C#N)nnc(N2CCc3ncc(Oc4cc(F)ccc4F)cc3C2)c1C [Example 353, 6-(3-(2,5-difluorophenoxy)-7,8-dihydro-1,6-naphthyridin-6(5H)-yl)-4,5-dimethylpyridazine-3-carbonitrile] | 73 | 126 | –
15 | Cc1c(C#N)nnc(N2CCc3ncc(-c4ccc(C5CC5)nc4)cc3C2)c1C [Example 301, 6-(3-(6-cyclopropylpyridin-3-yl)-7,8-dihydro-1,6-naphthyridin-6(5H)-yl)-4,5-dimethylpyridazine-3-carbonitrile] | 57 | 265 | –
16 | Cc1cc(C(=O)NCc2ccncc2)nnc1N1CCc2ncc(C(F)(F)F)cc2C1 [Example 493, 5-methyl-N-(pyridin-4-ylmethyl)-6-(3-(trifluoromethyl)-7,8-dihydro-1,6-naphthyridin-6(5H)-yl)pyridazine-3-carboxamide] | 112 | 37 | –

Further compounds by falling EC50, results first:

Row | Emax at 30 µM [%] | EC50 [nM] | Compound | Emax (CHO-K1) [%]
17 | 56 | 3290 | Cc1nc(N2CCCC2)c(C)c(N2CCc3ncc(-c4ccc(F)nc4)cc3C2)n1 [compound 223, 6-(2,5-dimethyl-6-(pyrrolidin-1-yl)pyrimidin-4-yl)-3-(6-fluoropyridin-3-yl)-5,6,7,8-tetrahydro-1,6-naphthyridine] | –
18 | 73 | 2960 | Cc1c(Cl)nc(C(F)(F)F)nc1N1CCc2ncc(C(F)(F)F)cc2C1 [compound 237, 6-(6-chloro-5-methyl-2-(trifluoromethyl)pyrimidin-4-yl)-3-(trifluoromethyl)-5,6,7,8-tetrahydro-1,6-naphthyridine] | –
19 | 64 | 2120 | COc1cc(CNC(=O)c2cnc(N3CCc4ncccc4C3)c(C)c2)ccc1F [compound 152, 6-(7,8-dihydro-5H-1,6-naphthyridin-6-yl)-N-[(4-fluoro-3-methoxy-phenyl)methyl]-5-methyl-pyridine-3-carboxamide] | –
20 | 56 | 1990 | O=C1c2cc(Br)c(N3CCc4ncc(C(F)(F)F)cc4C3)nc2OCCN1Cc1ccccc1 [Example 591, 4-benzyl-7-bromo-8-(3-(trifluoromethyl)-7,8-dihydro-1,6-naphthyridin-6(5H)-yl)-3,4-dihydropyrido[3,2-f][1,4]oxazepin-5(2H)-one] | –
21 | 75 | 888 | Cc1cc(C(=O)NCc2ccc(C#N)nc2)cnc1N1CCc2ncc(-c3cn(C)nc3C)cc2C1 [Example 456, N-((6-cyanopyridin-3-yl)methyl)-6-(3-(1,3-dimethyl-1H-pyrazol-4-yl)-7,8-dihydro-1,6-naphthyridin-6(5H)-yl)-5-methylnicotinamide] | –
22 | 60 | 868 | Cc1c(C#N)nnc(N2CCc3ncc(-c4cncnc4)cc3C2)c1C [compound 49, 4,5-dimethyl-6-(3-pyrimidin-5-yl-7,8-dihydro-5H-1,6-naphthyridin-6-yl)pyridazine-3-carbonitrile] | –
23 | 72 | 441 | Cc1cc(C#N)nnc1N1CCc2ncc(N3CCO[C@H](C)C3)cc2C1 [Example 397, (R)-5-methyl-6-(3-(2-methylmorpholino)-7,8-dihydro-1,6-naphthyridin-6(5H)-yl)pyridazine-3-carbonitrile] | –
24 | 91 | 420 | Cc1cc(C#N)cnc1N1CCc2ncc(-c3cccc(F)n3)cc2C1 [compound 168, 6-[3-(6-fluoro-2-pyridyl)-7,8-dihydro-5H-1,6-naphthyridin-6-yl]-5-methyl-pyridine-3-carbonitrile] | –
25 | 38 | 292 | Cc1cc2c(nc1N1CCc3ncc(C(F)(F)F)cc3C1)OCCN(Cc1ccccc1)C2=O [Example 592, 4-benzyl-7-methyl-8-(3-(trifluoromethyl)-7,8-dihydro-1,6-naphthyridin-6(5H)-yl)-3,4-dihydropyrido[3,2-f][1,4]oxazepin-5(2H)-one] | –
26 | 93 | 197 | Cc1nc(Cl)c(C)c(N2CCc3ncc(Nc4cccnc4F)cc3C2)n1 [compound 251, 6-(6-chloro-2,5-dimethylpyrimidin-4-yl)-N-(2-fluoropyridin-3-yl)-5,6,7,8-tetrahydro-1,6-naphthyridin-3-amine] | –
27 | 109 | 168 | Cc1cc(C(=O)N2CC(C(F)F)C2)nnc1N1CCc2ncc(C(F)(F)F)cc2C1 [Example 522, (3-(difluoromethyl)azetidin-1-yl)(5-methyl-6-(3-(trifluoromethyl)-7,8-dihydro-1,6-naphthyridin-6(5H)-yl)pyridazin-3-yl)methanone] | –
28 | 84 | 85 | Cc1cc(C(=O)N2CC(c3cccnc3)C2)nnc1N1CCc2ncc(-n3cccn3)cc2C1 [Example 535, (6-(3-(1H-pyrazol-1-yl)-7,8-dihydro-1,6-naphthyridin-6(5H)-yl)-5-methylpyridazin-3-yl)(3-(pyridin-3-yl)azetidin-1-yl)methanone] | –
29 | 106 | 36 | Cc1cnccc1CNC(=O)c1cc(C)c(N2CCc3ncc(C(F)(F)F)cc3C2)nn1 [Example 494, 5-methyl-N-((3-methylpyridin-4-yl)methyl)-6-(3-(trifluoromethyl)-7,8-dihydro-1,6-naphthyridin-6(5H)-yl)pyridazine-3-carboxamide] | –
